Data published in patent US20230346952A1, “CANNABINOID GLYCOSIDE PRODRUGS AND METHODS OF SYNTHESIS” (priority 2015, published 2023).
Where two headings read alike, the source gives them in different places.

Key:
[1] = molecular target: safety screen panel of human pharmacological targets (Homo sapiens, UniProt Q12809)
[2] = system: safety screen panel of human pharmacological targets
[3] = 1,000 mg/kg mixed glycosides by oral gavage; 6 hours; HPLC
[4] = molecular target: safety screen panel of human pharmacological targets (Homo sapiens, UniProt P06239); assay: biochemical; settings: read-out: percent inhibition: Lck kinase (h)
safety screen panel of human pharmacological targets (Homo sapiens, UniProt P06239), sequence (P06239 whole entry): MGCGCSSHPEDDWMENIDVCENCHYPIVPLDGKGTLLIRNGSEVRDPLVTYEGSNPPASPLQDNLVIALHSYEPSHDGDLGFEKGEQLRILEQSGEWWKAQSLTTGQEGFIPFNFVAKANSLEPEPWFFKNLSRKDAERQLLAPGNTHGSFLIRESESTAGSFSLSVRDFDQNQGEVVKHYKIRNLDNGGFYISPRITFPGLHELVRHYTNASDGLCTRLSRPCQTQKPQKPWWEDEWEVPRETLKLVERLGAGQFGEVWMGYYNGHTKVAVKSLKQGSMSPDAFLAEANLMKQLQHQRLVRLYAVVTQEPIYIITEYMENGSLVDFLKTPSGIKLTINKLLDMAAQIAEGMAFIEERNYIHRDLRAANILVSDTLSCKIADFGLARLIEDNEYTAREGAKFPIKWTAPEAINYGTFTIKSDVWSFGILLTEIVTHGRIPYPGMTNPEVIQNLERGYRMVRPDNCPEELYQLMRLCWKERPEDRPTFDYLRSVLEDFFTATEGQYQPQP

[5] = molecular target: safety screen panel of human pharmacological targets (Homo sapiens, UniProt P07550); assay: biochemical; settings: read-out: percent inhibition: beta 2 (h) (antagonist radioligand)
safety screen panel of human pharmacological targets (Homo sapiens, UniProt P07550), sequence (P07550 whole entry): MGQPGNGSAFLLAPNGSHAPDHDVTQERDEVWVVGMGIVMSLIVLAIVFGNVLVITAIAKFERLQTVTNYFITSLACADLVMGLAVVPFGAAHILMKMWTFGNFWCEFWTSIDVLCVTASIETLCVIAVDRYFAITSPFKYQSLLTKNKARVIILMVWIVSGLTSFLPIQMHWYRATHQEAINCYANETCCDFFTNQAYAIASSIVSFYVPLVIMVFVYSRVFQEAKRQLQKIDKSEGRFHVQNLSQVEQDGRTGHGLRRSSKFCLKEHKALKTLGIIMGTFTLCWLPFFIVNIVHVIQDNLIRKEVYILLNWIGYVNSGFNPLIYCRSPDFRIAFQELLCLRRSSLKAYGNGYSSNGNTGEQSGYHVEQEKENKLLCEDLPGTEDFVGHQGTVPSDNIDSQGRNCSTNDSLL

[6] = molecular target: T1, safety screen panel of human pharmacological targets (Homo sapiens, UniProt P08172); assay: biochemical; settings: read-out: percent inhibition: M2 (h) (antagonist radioligand)
T1 sequence (P08172 1-466): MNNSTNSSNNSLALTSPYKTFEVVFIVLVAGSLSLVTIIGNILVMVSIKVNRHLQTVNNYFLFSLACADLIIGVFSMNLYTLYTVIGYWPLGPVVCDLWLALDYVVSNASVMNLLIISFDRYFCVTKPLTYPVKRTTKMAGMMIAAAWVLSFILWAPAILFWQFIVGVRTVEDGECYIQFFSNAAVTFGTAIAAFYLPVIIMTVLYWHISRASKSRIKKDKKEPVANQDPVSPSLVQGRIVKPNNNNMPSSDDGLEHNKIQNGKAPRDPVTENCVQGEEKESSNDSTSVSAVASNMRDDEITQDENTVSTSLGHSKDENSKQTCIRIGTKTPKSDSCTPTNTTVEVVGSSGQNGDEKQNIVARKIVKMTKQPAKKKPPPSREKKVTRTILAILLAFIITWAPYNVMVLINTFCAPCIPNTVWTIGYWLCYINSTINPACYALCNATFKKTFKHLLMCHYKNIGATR

[7] = molecular target: T2, safety screen panel of human pharmacological targets (Homo sapiens, UniProt P11229); assay: biochemical; settings: read-out: percent inhibition: M1 (h) (antagonist radioligand)
T2 sequence (P11229 1-460): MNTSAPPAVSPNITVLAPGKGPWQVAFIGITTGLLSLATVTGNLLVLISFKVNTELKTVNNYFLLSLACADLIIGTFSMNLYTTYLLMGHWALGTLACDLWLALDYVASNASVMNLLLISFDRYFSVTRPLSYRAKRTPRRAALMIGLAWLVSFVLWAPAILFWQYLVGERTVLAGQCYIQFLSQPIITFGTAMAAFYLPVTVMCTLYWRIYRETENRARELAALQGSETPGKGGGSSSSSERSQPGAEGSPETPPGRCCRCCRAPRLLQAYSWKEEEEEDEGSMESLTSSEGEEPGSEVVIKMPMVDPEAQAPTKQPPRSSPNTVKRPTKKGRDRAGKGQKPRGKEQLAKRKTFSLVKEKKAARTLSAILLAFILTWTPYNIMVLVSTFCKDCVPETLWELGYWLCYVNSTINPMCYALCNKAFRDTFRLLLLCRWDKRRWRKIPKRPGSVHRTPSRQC

[8] = molecular target: safety screen panel of human pharmacological targets (Homo sapiens, UniProt P22303); assay: biochemical; settings: read-out: percent inhibition: acetylcholinesterase (h)
safety screen panel of human pharmacological targets (Homo sapiens, UniProt P22303), sequence (P22303 32-614): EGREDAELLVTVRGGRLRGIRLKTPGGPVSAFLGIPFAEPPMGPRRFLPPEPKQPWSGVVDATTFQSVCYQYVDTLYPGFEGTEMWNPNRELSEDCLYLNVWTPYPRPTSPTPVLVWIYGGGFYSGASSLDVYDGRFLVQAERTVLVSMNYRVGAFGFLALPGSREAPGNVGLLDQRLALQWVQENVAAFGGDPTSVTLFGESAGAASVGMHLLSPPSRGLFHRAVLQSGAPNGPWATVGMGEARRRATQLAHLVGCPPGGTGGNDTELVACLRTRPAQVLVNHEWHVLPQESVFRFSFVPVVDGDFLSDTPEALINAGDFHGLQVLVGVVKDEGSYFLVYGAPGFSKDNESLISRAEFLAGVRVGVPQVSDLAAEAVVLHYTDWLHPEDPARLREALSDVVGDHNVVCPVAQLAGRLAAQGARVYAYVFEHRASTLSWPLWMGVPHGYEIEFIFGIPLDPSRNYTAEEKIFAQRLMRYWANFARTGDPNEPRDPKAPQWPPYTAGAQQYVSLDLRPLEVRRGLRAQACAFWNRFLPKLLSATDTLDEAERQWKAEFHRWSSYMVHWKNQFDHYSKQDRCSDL

[9] = molecular target: safety screen panel of human pharmacological targets (Homo sapiens, UniProt P23975); assay: biochemical; settings: read-out: percent inhibition: norepinephrine transporter (h) (antagonist radioligand)
safety screen panel of human pharmacological targets (Homo sapiens, UniProt P23975), sequence (P23975 whole entry): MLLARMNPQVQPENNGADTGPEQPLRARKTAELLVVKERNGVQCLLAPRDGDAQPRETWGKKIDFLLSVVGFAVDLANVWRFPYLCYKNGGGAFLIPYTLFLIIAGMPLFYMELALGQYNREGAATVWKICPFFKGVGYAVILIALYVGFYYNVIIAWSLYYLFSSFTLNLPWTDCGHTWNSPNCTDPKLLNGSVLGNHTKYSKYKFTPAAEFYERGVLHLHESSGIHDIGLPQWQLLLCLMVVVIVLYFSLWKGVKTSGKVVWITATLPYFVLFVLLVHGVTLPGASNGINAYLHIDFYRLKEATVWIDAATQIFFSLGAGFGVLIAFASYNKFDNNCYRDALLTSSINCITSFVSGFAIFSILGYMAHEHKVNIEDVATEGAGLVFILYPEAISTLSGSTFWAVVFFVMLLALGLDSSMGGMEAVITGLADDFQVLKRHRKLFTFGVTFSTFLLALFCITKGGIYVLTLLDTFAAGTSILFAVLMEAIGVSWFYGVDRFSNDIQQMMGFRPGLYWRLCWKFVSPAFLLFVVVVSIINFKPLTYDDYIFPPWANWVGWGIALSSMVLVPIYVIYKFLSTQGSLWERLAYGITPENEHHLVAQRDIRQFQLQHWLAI

[10] = molecular target: safety screen panel of human pharmacological targets (Homo sapiens, UniProt P25021); assay: biochemical; settings: read-out: percent inhibition: H2 (h) (antagonist radioligand)
safety screen panel of human pharmacological targets (Homo sapiens, UniProt P25021), sequence (P25021 whole entry): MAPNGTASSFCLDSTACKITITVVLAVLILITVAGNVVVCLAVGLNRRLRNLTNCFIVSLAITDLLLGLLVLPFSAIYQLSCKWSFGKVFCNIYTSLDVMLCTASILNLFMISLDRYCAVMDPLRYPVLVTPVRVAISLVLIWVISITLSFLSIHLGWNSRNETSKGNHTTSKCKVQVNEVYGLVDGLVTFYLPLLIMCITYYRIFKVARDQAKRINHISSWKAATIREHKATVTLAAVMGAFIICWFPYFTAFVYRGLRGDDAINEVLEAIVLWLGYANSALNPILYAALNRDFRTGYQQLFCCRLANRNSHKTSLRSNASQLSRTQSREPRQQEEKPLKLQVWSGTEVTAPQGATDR

[11] = molecular target: T3, safety screen panel of human pharmacological targets (Homo sapiens, UniProt P35354); assay: biochemical; settings: read-out: percent inhibition: COX2(h})
T3 sequence (P35354 18-604): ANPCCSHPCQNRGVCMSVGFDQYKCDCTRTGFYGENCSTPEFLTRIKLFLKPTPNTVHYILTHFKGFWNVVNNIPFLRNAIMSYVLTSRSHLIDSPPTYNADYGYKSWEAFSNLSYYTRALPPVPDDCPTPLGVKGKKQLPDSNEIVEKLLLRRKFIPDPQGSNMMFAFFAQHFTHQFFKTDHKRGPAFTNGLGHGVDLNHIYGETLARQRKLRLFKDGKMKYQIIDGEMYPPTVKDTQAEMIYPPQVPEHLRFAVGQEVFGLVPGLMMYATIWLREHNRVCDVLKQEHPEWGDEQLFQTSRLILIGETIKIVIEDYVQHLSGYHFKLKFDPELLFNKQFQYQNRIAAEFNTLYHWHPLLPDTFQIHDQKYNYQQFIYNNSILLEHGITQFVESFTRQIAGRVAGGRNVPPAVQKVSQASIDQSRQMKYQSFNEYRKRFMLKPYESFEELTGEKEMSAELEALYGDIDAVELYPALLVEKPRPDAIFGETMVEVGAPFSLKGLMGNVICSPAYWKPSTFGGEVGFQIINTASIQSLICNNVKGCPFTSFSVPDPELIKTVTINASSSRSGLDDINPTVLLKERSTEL

[12] = molecular target: safety screen panel of human pharmacological targets (Homo sapiens, UniProt P35367); assay: biochemical; settings: read-out: percent inhibition: H1 (h) (antagonist radioligand)
[13] = molecular target: safety screen panel of human pharmacological targets (Homo sapiens, UniProt P41143); assay: biochemical; settings: read-out: percent inhibition: delta (DOP) (h) (agonist radioligand)
safety screen panel of human pharmacological targets (Homo sapiens, UniProt P41143), sequence (P41143 whole entry): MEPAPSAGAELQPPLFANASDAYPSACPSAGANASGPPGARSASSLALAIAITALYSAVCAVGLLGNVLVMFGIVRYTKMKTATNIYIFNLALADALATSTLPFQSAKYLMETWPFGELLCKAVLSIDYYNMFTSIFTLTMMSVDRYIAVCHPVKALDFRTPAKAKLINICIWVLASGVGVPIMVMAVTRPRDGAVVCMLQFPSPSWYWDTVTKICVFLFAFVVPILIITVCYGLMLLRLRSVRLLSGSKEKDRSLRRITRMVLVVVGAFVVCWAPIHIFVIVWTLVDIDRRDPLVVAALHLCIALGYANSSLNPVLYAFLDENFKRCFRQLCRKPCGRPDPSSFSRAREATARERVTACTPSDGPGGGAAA

[14] = molecular target: safety screen panel of human pharmacological targets (Homo sapiens, UniProt P41595); assay: biochemical; settings: read-out: percent inhibition: 5-HT2B (h) (agonist radioligand)
safety screen panel of human pharmacological targets (Homo sapiens, UniProt P41595), sequence (P41595 whole entry): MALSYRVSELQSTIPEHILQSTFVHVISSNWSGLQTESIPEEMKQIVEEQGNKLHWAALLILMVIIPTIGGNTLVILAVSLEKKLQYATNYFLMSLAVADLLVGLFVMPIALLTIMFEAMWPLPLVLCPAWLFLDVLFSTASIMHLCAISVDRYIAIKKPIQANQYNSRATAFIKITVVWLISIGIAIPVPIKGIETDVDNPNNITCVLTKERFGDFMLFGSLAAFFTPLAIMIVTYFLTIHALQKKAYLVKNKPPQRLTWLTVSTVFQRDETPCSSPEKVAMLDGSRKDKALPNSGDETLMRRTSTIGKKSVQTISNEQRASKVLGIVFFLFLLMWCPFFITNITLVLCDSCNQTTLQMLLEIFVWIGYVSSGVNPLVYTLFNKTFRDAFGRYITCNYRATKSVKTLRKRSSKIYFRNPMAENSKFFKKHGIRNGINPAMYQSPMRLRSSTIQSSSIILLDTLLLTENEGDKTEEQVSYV

[15] = molecular target: safety screen panel of human pharmacological targets (Rattus norvegicus, UniProt P28564); assay: biochemical; settings: read-out: percent inhibition: 5-HT1B (antagonist radioligand)
safety screen panel of human pharmacological targets (Rattus norvegicus, UniProt P28564), sequence (P28564 whole entry): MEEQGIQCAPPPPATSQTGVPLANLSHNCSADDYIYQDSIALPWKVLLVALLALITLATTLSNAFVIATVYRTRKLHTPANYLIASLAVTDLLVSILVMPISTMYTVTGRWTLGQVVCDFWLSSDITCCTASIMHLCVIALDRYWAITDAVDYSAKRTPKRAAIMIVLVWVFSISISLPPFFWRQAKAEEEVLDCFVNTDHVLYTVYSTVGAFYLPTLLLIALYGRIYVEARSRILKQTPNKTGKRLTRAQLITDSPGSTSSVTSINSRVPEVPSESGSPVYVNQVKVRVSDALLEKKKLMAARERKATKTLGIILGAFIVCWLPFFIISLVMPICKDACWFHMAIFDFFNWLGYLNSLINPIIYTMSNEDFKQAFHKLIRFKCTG

[16] = 10 micromolar test article, Adrenergic a1A receptor
[17] = 10 micromolar test article, Adrenergic α2A receptor
[18] = 10 micromolar test article, Benzodiazapine GABA channel
[19] = 10 micromolar test article, Calcium Channel L-Type, Dihydropyridine
[20] = 10 micromolar test article, Dopamine D2S receptor
[21] = 10 micromolar test article, N-Methyl-D-aspartate
[22] = 10 micromolar test article, Phosphodiesterase 4D2
[23] = 10 micromolar test article, Sodium channel
[24] = 10 micromolar test article, Voltage-gated potassium channel
[25] = 10 micromolar test article, results greater than 50% deemed significant

safety screen panel of human pharmacological targets (Homo sapiens, UniProt Q12809), sequence (Q12809 whole entry): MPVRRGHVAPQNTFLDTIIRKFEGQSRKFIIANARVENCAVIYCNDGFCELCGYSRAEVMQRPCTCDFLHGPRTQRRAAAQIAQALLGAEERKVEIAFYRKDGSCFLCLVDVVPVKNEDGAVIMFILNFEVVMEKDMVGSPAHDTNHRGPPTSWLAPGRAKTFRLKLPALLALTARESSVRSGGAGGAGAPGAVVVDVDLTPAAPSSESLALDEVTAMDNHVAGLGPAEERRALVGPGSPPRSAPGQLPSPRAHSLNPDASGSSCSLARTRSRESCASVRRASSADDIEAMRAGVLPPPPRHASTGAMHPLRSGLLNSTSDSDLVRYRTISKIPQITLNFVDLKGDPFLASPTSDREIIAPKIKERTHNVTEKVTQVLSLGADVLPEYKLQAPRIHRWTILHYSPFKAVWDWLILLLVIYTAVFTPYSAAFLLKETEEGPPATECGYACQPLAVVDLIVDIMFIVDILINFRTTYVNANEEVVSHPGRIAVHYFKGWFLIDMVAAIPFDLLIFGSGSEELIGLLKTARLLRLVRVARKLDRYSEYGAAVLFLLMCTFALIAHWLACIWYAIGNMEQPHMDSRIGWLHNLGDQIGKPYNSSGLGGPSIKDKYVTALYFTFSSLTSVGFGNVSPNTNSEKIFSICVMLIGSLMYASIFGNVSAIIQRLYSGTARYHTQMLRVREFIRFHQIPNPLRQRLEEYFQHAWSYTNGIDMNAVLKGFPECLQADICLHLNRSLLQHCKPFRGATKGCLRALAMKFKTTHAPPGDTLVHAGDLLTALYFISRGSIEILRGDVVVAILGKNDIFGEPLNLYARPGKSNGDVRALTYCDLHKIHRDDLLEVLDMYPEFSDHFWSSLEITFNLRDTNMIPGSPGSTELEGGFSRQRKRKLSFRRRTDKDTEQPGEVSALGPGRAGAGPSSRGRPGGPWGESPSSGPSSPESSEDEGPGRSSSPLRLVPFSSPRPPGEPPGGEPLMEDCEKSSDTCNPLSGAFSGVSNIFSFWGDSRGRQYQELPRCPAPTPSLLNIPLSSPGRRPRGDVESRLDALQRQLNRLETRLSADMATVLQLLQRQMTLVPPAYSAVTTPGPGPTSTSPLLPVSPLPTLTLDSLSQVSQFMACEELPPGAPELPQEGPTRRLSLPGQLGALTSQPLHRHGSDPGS

SMILES	change of share of total THC-glycosides in large intestine extracts versus small intestine extracts [3]	change of share of total THC-glycosides in small intestine extracts versus administered mixture [3]	inhibition at 10 µM [4]	inhibition at 10 µM [5]	inhibition at 10 µM [6]	inhibition at 10 µM [7]	inhibition at 10 µM [8]	inhibition at 10 µM [9]	inhibition at 10 µM [10]	inhibition at 10 µM [11]	inhibition at 10 µM [12]	inhibition at 10 µM [13]	inhibition at 10 µM [14]	inhibition at 10 µM [15]	percent inhibition: Potassium Channel hERG (human)- [3H] Dofetilide ([1]; 10 micromolar test article)	percent inhibition: alpha 1A(h) (antagonist radioligand) [2, 16]	percent inhibition: alpha 2A (h) (antagonist radioligand) [2, 17]	percent inhibition: BZD (central) (agonist radioligand) [2, 18]	percent inhibition: Ca2+ channel (L. dihydropyridine site) (antagonist radioligand) [2, 19]	percent inhibition: D2S (h) (agonist radioligand) [2, 20]	further results
CCCCCc1cc(O)c2c(c1)OC(C)(C)[C@@H]1CCC(C)=C[C@@H]21 [VB301, Δ9-Terahydrocannabinol, reference compound]	appreciable amounts	below the limit of detection	15%	-12%	21%	20%	30%	90%	-6%	-6%	8%	43%	90%	26%	–	–	–	–	–	–	percent inhibition: Potassium Channel hERG (human)- [3H] Dofetilide ([1]; human): 67%; percent inhibition: BZD (central) (agonist radioligand) [2]: 2%; percent inhibition: Ca2+ channel (L. dihydropyridine site) (antagonist radioligand) [2]: 59%; percent inhibition: D2S (h) (agonist radioligand) [2]: 13%; percent inhibition: KV channel (antagonist radioligand) [2]: 5%; percent inhibition: NMDA (antagonist radioligand) [2]: 10%; percent inhibition: Na+ channel (site 2) (antagonist radioligand) [2]: 65%; percent inhibition: PDE4D2 (h) [2]: -11%; percent inhibition: alpha 1A(h) (antagonist radioligand) [2]: 6%; percent inhibition: alpha 2A (h) (antagonist radioligand) [2]: 94%; number of the 44 pharmacological targets whose binding is significantly inhibited or disrupted ([2]; human): 16
CCCCCc1cc(O[C@@H]2O[C@H](CO)[C@@H](O)[C@H](O)[C@H]2O)c2c(c1)OC(C)(C)[C@@H]1CCC(C)=C[C@@H]21 [VB302, Δ9THC-1-O-glucopyranoside]	further increases	increases	-10%	2%	2%	-3%	-1%	16%	-11%	-20%	10%	5%	-5%	-1%	-23%	-5%	0%	-10%	22%	22%	percent inhibition: NMDA (antagonist radioligand) [2, 21]: 8%; percent inhibition: PDE4D2 (h) [2, 22]: -8%; percent inhibition: Na+ channel (site 2) (antagonist radioligand) [2, 23]: 13%; percent inhibition: KV channel (antagonist radioligand) [2, 24]: 1%; number of the 44 pharmacological targets whose binding is significantly inhibited or disrupted [2, 25]: did not significantly alter any of the targets
CCCCCc1cc(O[C@@H]2O[C@H](CO[C@@H]3O[C@H](CO)[C@@H](O)[C@H](O)[C@H]3O)[C@@H](O[C@@H]3O[C@H](CO)[C@@H](O)[C@H](O)[C@H]3O)[C@H](O)[C@H]2O)c2c(c1)OC(C)(C)[C@@H]1CCC(C)=C[C@@H]21 [VB311]	further decreases	sharp decrease	21%	-1%	-4%	-8%	1%	20%	-10%	8%	-7%	0%	-7%	-7%	-10%	-3%	8%	16%	-7%	-6%	percent inhibition: NMDA (antagonist radioligand) [2, 21]: 3%; percent inhibition: PDE4D2 (h) [2, 22]: -6%; percent inhibition: Na+ channel (site 2) (antagonist radioligand) [2, 23]: 5%; percent inhibition: KV channel (antagonist radioligand) [2, 24]: -5%; number of the 44 pharmacological targets whose binding is significantly inhibited or disrupted [2, 25]: did not significantly alter any of the targets
